Reference: patent US9198848B2, “Process for obtaining extracts containing methylxanthine derivatives from cakes of plants of the genus Theobroma, as well as composition and use of said extract” (Natura Cosmeticos S.A., priority 2008, dated 2015)

Assays:
human fibroblasts = test: Production of β-endorphin in a culture of human fibroblasts (ELISA); format: cell-based; conditions: 0.038-0.600 μg/mL, 48 hr incubation, FIG. 2
Method: To carry out the experiments a cell line (pure/isolated culture) of human fibroblasts, adult age (mature), 6a passage was used.
The cells were cultured on appropriate culture plates (24 well) in specific medium culture, containing supplements required for cell maintenance and proliferation. For that purpose, 1×10^5 cells/well were seeded, confluence being reached after a 48 hour incubation, in a wet stove, 5% CO2, 37° C.
Subsequent to confluence (approximately 80% of the total area), the samples to be assessed were added, at the appropriate concentrations and previously established, according to table 1, always keeping a group as CONTROL (with no treatment), for comparative purposes in assessing effectiveness. The samples were previously diluted in proper culture medium.
(§1) After 48 hour incubation (wet stove, 5% CO2, 37° C.) with the samples, the supernatant of cell cultures were collected for assessing the beta-endorphin release. The possible citotoxicity of the compound was also assessed and taken into account. Assessment was qualitative only, by analysis of morphology and cell characteristics.
Quantification of the production of beta-endorphin by the cells in culture was carried out by the immunoenzymatic method ELISA (Enzyme-Linked Immunosorbent Assay), using a kit appropriate for determining beta-endorphin in biological samples. The samples were assessed in quadruplicate.

human keratinocytes = test: Production of β-endorphin in a culture of human keratinocytes (ELISA); format: cell-based; conditions: 0.038-0.600 μg/mL, 48 hr incubation, FIG. 3
Method: To carry out the experiments a cell line (pure/isolated culture) of human keranoticytes, adult age (mature), 7th passage was used.
The cells were cultured on appropriate culture plates (24 well) in specific medium culture, containing supplements required for cell maintenance and proliferation. For that purpose, 1×10^5 cells/well were seeded, confluence being reached after 72 hour incubation, in a wet stove, 5% CO2, 37° C.
Subsequent to confluence (approximately 80% of the total area), the samples to be assessed were added, at the appropriate concentrations and previously established, according to table 2, always keeping a group as CONTROL (with no treatment), for comparative purposes in assessing effectiveness. The samples were previously diluted in proper culture medium.
as §1
Quantification of the production of beta-endorphin by the cells in culture was carried out by the immunoenzymatic method ELISA (Enzyme-Linked immunosorbent Assay), using a kit appropriate for determining de beta-endorphin in biological samples. The samples were assessed in quadruplicate.

bovine fosfodiesterase = conditions: in vitro bovine fosfodiesterase; theobromine versus caffeine; cited from earlier work
[1] = tested on: UVA light-induced wrinkles; conditions: topical; 10 mM; UVA 13.0 J/cm^2; 15-week study; cited from earlier work
adipocytes = conditions: ex vivo adipocytes; caffeine versus theobromine; lypolisis rate by intracelullar glycerol; cited from earlier work

SMILES | production of β-endorphin compared with TC150905MX at the same concentration (human fibroblasts) | production of β-endorphin compared with TC150905MX at the same concentration (human keratinocytes) | power in the ability of increasing AMPc (fosfodiesterase inhibition) (bovine fosfodiesterase) | prevention of UVA light-induced wrinkles [1] | power on noradrenaline-induced lypolisis (adipocytes)
Cn1c(=O)c2c(ncn2C)n(C)c1=O [caffeine] | higher production of β-endorphin | higher production of β-endorphin | identical | effective | equivalent power
Cn1cnc2c1c(=O)[nH]c(=O)n2C [theobromine] |  |  | identical |  | 
